Values of other authors in patent US20170252311A1, “SPHINGOSINE KINASE INHIBITORS AND CERAMIDE FOR MAINTENANCE THERAPY OF GLIOBLASTOMA” (SignPath Pharma Inc., priority 2016, published 2017).
Like-named read-outs stand apart in the source and are kept apart here. Each block holds one compound with its values, some of them ahead of it.

What was measured:
SK (sphingosine kinase) = conditions: arrow down = decrease, arrow up = increase (not defined in patent)
[1] = tested on: Cer Syn (ceramide synthase)
[2] = tested on: SPT (serine palmitoyltransferase)
tumor = conditions: single agent
[3] = biological target: T1, Acid Cer (Acid ceramidase) (Homo sapiens, UniProt Q13510)
T1 sequence (Q13510 22-395): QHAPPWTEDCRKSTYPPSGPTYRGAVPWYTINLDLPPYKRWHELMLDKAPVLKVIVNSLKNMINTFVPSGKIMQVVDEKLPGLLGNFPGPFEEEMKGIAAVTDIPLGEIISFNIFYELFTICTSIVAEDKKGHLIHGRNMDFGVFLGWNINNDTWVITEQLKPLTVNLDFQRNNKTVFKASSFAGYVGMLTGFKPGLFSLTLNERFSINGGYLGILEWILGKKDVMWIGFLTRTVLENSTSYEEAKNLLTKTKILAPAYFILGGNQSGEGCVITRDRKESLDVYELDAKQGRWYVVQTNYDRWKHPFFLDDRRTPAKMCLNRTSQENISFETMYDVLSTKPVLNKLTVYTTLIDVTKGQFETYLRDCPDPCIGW

[4] = tested on: U87MG, U1242MG, M059K cell lines; conditions: in all three lines
[5] = tested on: JC mouse mammary adenocarcinoma cell line
[6] = tested on: JC mammary adenocarcinoma cells; conditions: syngeneic BALB/c mouse solid tumor model of JC cells
[7] = tested on: GTP cyclohydrolase (GTPCH); conditions: C6 glioma cell line
[8] = tested on: LN229 intracranial xenografts
[9] = tested on: human leukemic cell lines and acute myelogenous leukemia xenografts; conditions: human leukemic cell lines and AML xenografts
SK2 = SK2 (Homo sapiens, UniProt Q9NRA0); conditions: selectivity
Chain of SK2 (Q9NRA0 whole entry): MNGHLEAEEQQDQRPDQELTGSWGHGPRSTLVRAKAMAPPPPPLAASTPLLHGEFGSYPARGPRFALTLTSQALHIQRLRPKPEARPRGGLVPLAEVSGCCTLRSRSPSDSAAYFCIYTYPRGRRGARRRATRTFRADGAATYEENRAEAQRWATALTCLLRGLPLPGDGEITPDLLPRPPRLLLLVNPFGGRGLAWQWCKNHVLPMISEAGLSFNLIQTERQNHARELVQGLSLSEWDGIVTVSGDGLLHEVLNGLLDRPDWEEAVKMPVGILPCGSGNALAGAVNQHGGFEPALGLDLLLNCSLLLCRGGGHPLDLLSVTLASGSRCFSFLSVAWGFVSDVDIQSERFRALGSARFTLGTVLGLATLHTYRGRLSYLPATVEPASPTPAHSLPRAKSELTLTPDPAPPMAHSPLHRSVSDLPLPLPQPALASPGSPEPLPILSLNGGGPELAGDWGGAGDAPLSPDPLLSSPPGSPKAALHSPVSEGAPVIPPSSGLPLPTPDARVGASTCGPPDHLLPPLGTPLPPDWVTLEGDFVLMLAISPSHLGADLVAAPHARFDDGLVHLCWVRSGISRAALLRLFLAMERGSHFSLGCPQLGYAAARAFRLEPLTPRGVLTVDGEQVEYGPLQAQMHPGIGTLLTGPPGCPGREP

protein kinase B = conditions: selectivity
protein kinase C = conditions: selectivity
[10] = tested on: other serine/threonine kinases; conditions: selectivity
[11] = tested on: LN229 and U373 glioblastoma cell lines, non-established human GBM6 cells, and GBM xenografts
[12] = biological target: GCS (glucosylceramide synthase) (Homo sapiens, UniProt Q16739)
Chain of GCS (glucosylceramide synthase) (Q16739 whole entry, species assumed): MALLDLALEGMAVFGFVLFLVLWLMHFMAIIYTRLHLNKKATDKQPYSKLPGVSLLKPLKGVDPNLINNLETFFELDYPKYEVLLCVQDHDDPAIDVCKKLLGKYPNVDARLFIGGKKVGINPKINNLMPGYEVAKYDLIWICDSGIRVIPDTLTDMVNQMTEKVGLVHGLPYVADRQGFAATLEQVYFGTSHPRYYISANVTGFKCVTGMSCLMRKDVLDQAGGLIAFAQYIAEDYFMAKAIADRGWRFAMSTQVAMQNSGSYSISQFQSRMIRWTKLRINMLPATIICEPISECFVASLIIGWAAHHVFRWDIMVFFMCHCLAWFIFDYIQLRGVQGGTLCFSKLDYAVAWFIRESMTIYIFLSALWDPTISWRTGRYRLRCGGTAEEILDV

[13] = tested on: prostate cancer cell lines and TRAMP-C2 xenografts
[14] = tested on: xenograft prostate cancer models

- Sphingolipid Enzymes Affected: SK (SK (sphingosine kinase)): ↓SK
- Sphingolipid Enzymes Affected: Cer Syn [1]: ↑Cer Syn
- Sphingolipid Enzymes Affected: SPT [2]: ↑SPT
SMILES: Oc1ccc(C=Cc2cc(O)cc(O)c2)cc1 [Resveratrol]

- Sphingolipid Enzymes Affected: SK (SK (sphingosine kinase)): ↓SK
- Sphingolipid Enzymes Affected: Cer Syn [1]: ↑Cer Syn
SMILES: Cc1cn(-c2cc(NC(=O)c3ccc(C)c(Nc4nccc(-c5cccnc5)n4)c3)cc(C(F)(F)F)c2)cn1 [Nilotinib]

- Sphingolipid Enzymes Affected: SK (SK (sphingosine kinase)): ↓SK
- Sphingolipid Enzymes Affected: Cer Syn [1]: ↑Cer Syn
SMILES: Cc1ccc(NC(=O)c2ccc(CN3CCN(C)CC3)cc2)cc1Nc1nccc(-c2cccnc2)n1 [Imatinib]

- Sphingolipid Enzymes Affected: SK (SK (sphingosine kinase)): ↓SK
- Sphingolipid Enzymes Affected: SMase (SMase (Sphingomyelinase)): ↑↓Smase
- Sphingolipid Enzymes Affected: Acid Cer [3]: ↓Acid Cer
- Sphingolipid Enzymes Affected: SM Syn (SM Syn): ↓SM Syn
- Sphingolipid Enzymes Affected: GCS [12]: ↑GCS
SMILES: CCN(CC)CCCC(C)Nc1ccnc2cc(Cl)ccc12 (stereo not drawn) [Chloroquine]

- Sphingolipid Enzymes Affected: SK (SK (sphingosine kinase)): ↓SK
- Sphingolipid Enzymes Affected: SMase (SMase (Sphingomyelinase)): ↑↓Smase
- Sphingolipid Enzymes Affected: Acid Cer [3]: ↓Acid Cer
- Sphingolipid Enzymes Affected: SM Syn (SM Syn): ↓SM Syn
- Sphingolipid Enzymes Affected: GCS [12]: ↑GCS
SMILES: OC(c1cc(C(F)(F)F)nc2c(C(F)(F)F)cccc12)C1CCCCN1 (stereo not drawn) [Mefloquine]

More lines, now with the values behind:

SMILES: CCCCCCCCCCCCC/C=C/[C@@H](O)[C@H](CO)[N+](C)(C)C [N,N,N-trimethylsphingosine]
- anti-tumor activity alone (tumor): did not appear to have significant anti-tumor activity alone

SMILES: CC/C(=C(\c1ccccc1)c1ccc(OCCN(C)C)cc1)c1ccccc1 [tamoxifen]
- Sphingolipid Enzymes Affected: Acid Cer [3]: decreases acid ceramidase

SMILES: Oc1ccc(Nc2nc(-c3ccc(Cl)cc3)cs2)cc1 [SKI-II, 4-[4-(4-chloro-phenyl)-thiazol-2-ylamino]-phenol]
- cellular proliferation ([4]; listed as 2-(p-Hdroxyanilino)-4-(p-chlorophenyl)thiazole): Decreased cellular proliferation
- cellular proliferation ([4]; listed as 2-(p-Hydroxyanilino)-4-(p-chlorophenyl)thiazole): significantly decreased the rate of proliferation
- cancer cell death (U251MG, D54MG cell lines; TMZ resistant GBM cell lines U251 and D54MG): promote cancer cell death
- activity in cell lines made resistant to TMZ (U251MG, D54MG cell lines; U251MG, D54MG): Active in cell lines mde resistant
- cell cycle (accumulation of cells at G1) (U98G cell line): accumulation of cells at G1.
- proliferation (U98G cell line): Decreased proliferation. Caused
- expression of urokinase plasminogen activator (U118MG cell line): Blocked
- invasiveness (U118MG cell line): Decreased invasiveness
- anti-tumor activity [5]: anti-tumor activity
- anti-tumor activity [6]: especially effective

SMILES: CCCCCCCCCCCCCCC[C@H](O)[C@@H](N)CO [safingol, D,L-threodihydrosphingosine]
- anti-tumor activity alone (tumor): did not appear to have significant anti-tumor activity alone

SMILES: CCCCCCCCCCCCC/C=C/[C@@H](O)[C@H](CO)N(C)C [N,N-dimethylshingosine]
- tumor necrosis factor-α induced GTP cyclohydrolase (GTPCH) activity [7]: Suppressed tumor necrosis

SMILES: COc1cc(/C=C/C(=O)CC(=O)/C=C/c2ccc(O)c(OC)c2)ccc1O [Curcumin]
- Sphingolipid Enzymes Affected: SK (SK (sphingosine kinase)): ↓SK
- Sphingolipid Enzymes Affected: Cer Syn [1]: ↑Cer Syn
- Sphingolipid Enzymes Affected: SPT [2]: ↑SPT

SMILES: O=C1C(=Cc2ccc(O)c(O)c2)Oc2ccccc21 [SKI-V, 2-(3,4-dihydroxy-benzylidene)-benzofuran-3-one]
- anti-tumor activity [5]: anti-tumor activity
- anti-tumor activity [6]: anti-tumor activity

SMILES: CCCCCc1ccc(/C=C/[C@H](O)[C@@H](CO)NC)cc1 [SK1-I, (2R,3S,4E)-N-methyl-5-(4′-pentylphenyl)-2-aminopent-4-ene-1,3-diol]
- cell growth (LN229, U373 cell lines): Inhibited cell growth
- migration (LN229, U373 cell lines): Inhibited
- cell growth (GBM6 cell lines): Reduced cell growth
- epidermal growth factor-stimulated phosphorylation of Akt (GBM6 cell lines): Reduced
- angiogenesis [8]: Reduced
- apoptosis [8]: Caused apoptosis
- tumor growth rate [8]: Reduced tumor growth rate.
- apoptosis [9]: induced apoptosis
- tumor growth [9]: blocked tumor growth
- inhibition of SK2 (SK2): does not inhibit
- inhibition of protein kinase B (protein kinase B): does not inhibit
- inhibition of protein kinase C (protein kinase C): does not inhibit
- inhibition of other serine/threonine kinases [10]: does not inhibit
- apoptosis [11]: prompts apoptosis
- protein kinase B (Akt) signaling [11]: inhibits protein kinase B (Akt) signaling
- tumor development [11]: suppresses tumor development

SMILES: O=C(NN=Cc1c(O)ccc2ccccc12)c1cc(-c2ccc3ccccc3c2)n[nH]1 [SKI-I, 5-naphthalen-2-yl-2H-pyrazole-3-carboxylic acid (2-hydroxy-naphthalen-1-ylmethylene)-hydrazide]
- anti-tumor activity [5]: anti-tumor activity
- anti-tumor activity [6]: anti-tumor activity

SMILES: O=C(NCc1ccncc1)C12CC3CC(C1)CC(c1ccc(Cl)cc1)(C3)C2 [ABC294640, 3-(4-chlorophenyl)-adamantane-1-carboxylic acid (pyridin-4-ylmethyl) amide]
- cell viability [13]: reduced cell viability
- expression of c-myc [13]: decreased expression of c-myc
- cancer growth [14]: significantly blocked cancer growth
